From patent US6013628A, “Method for treating conditions of the eye using polypeptides” (Regents of the University of Minnesota, priority 1995, dated 2000)
No end group written: not given here.

Key:
[1] = test system: filtration surgery in rabbits; test: Rabbit model of glaucoma filtration surgery failure; format: in vivo; design: IOP: unit not given here
Protocol: The rabbit model for filtration surgery is described by Bergstrom TJ, and Skuta GL. et al. in Arch. Ophthalmol, 109(12):1725-30, 1991. Two New Zealand white albino rabbits were used in the study. All animals were treated according to ARVO Animal Use Guidelines. All eyes were examined prior to initiation of a study and only clinically normal animals were used.
All the rabbits underwent preoperative examination and the intraocular pressure (IOP) was measured by pneumatonometry (PneumaTonometer, Digilab Model 30R, Cambridge, Mass.). The rabbits were anesthetized using an intramuscular injection of a mix of ketamine (30 mg/kg) and xylazine (5 mg/kg). A posterior lip sclerectomy was then performed on both eyes of each animal during the same period of anesthesia. […] The superotemporal conjuctiva and Tenon's capsule was incised near the fornix, and the dissection was performed anteriorly to the limbus. The anterior chamber was entered at the filtration site and a 1-mm by 3-mm block of limbal scleral tissue was excised from the posterior lip of the wound with the Kelly-Descemet punch. A peripheral iridectomy was then performed with Vannas scissors and curved jeweler's forceps. Hand-held thermal cautery was used as needed to provide hemostasis. The conjunctiva was closed with a running 10-0 nylon suture. The right eye received subconjunctival injection of the Hep-II dissolved in 0.15 ml distilled water at the end of the filtration surgery and the left eye, which served as the control, received an equal volume of distilled water. These and each of the subsequent injections were made into the area of the bleb. No prophylactic antibiotics, cycloplegic, or corticosteroid was applied to either eye intraoperatively or postoperatively. Postoperative evaluation included examination with a portable slit-lamp biomicroscope, evaluation of the filtering bleb and intraocular pressure measurements obtained with a pneumatonometer. At the end of the study the animals were sacrificed while under anesthesia with an intravenous injection of 1 cc of euthanasia solution.
The results of filtration surgery were evaluated by monitoring intraocular pressures and visual inspection of scarring and vascularization. The ability of ability of a synthetic polypeptide to prolong the effect of glaucoma treatment by filtration surgery was examined using the rabbit model. The right eye was treated with subconjunctival injection of 1 milligram of Hep-II dissolved in 0.15 ml of distilled water at the end of filtration surgery and every other day for a total of eight injections. The left eye served as the control and received an equal volume of distilled water on those days. The intraocular pressures (IOP) were checked using a pneumatonometer every day until day 9 and roughly every other day until day 28 (Table V and FIG. 27). […] Control eyes reached pre-operative pressures between about day 4 and day 9.

[2] = test system: rabbit dermal fibroblasts; test: Fibroblast-mediated collagen gel contraction (shrinkage) assay; format: cell-based
From the text: As indicated above, proliferative vitreoretinopathy is the result of the proliferation and migration of fibroblasts, retinal pigment epithelial cells, and glial cells, and their organization into vitreous strands and epiretinal membranes. The vitreous strands and epiretinal membranes can contract, resulting in traction retinal detachment. The ability of rabbit dermal fibroblasts to cause contraction was examined in the collagen gel shrinkage model, which serves as an in vitro model of proliferative vitreoretinopathy (see Verdoon et al., Arch. Ophthalmol., 104, 1216-1219 (1986)). The ability of synthetic polypeptides derived from ECM molecules to inhibit contraction in the collagen gel shrinkage model using rabbit fibroblasts was also examined.
Fifty thousand rabbit dermal fibroblasts were suspended in 250 μl of fibroblast assay medium and mixed with 250 μl of Vitrogen and dispensed into the wells of a 48-well plate. The cells were preincubated with the desired polypeptide concentration (25, 50, 100, or 200 ug/ml) for one hour at 37° C. before mixing with the Vitrogen. Gelling occurred within 20 minutes after transfer of the mix of cell suspension and Vitrogen into an incubator at 37° C. with 5% CO2. The gels were overlaid with 250 μl of growth medium. All conditions were tested in duplicate wells. After 24 hours, the gels were detached from the sides of the wells by sweeping with a 27-gauge needle inserted at the interface between the plastic well and the gel (FIGS. 6-8).
Contraction of collagen gels was quantitated by use of planimetry. The gels were observed daily over the seven day period following detachment for evidence of contraction. The plates were photographed at the end of the seven days to record the amount of contraction. The contraction was measured by recording the area of each gel in each well off the photograph using a computer scanner. The area of the gels with polypeptide was compared to the area of the gels without the polypeptide. Planimetry is a two-dimensional measurement. […] The planimetry measurements accordingly underestimate the degree of contraction that actually occurred.
The collagen gels were cast with or without the incorporation of 25 ug/ml of fibronectin. […] These controls using deactivated cells indicate that cell growth and proliferation are required to effect gel shrinkage.

With “LAGSCLARFSTM [Hep-II, Leu-Ala-Gly-Ser-Cys-Leu-Ala-Arg-Phe-Ser-Thr-Met]” the “IOP in treated eyes versus control eyes” value ([1]; 1 milligram subconjunctival every other day, eight injections, 28 days, p<0.001) was “lower than the control eyes”, the IOP ([1]; Rabbit #3 OD (1 milligram Hep-II subconjunctival, eight injections), Post op #1, Pre op 32, control OS 22) was 24 and the IOP ([1]; Rabbit #3 OD (1 milligram Hep-II subconjunctival, eight injections), Post op #2, Pre op 32, control OS 31) was 30. For the same sequence, the IOP ([1]; Rabbit #3 OD (1 milligram Hep-II subconjunctival, eight injections), Post op #3, Pre op 32, control OS 30) was 25, the IOP ([1]; Rabbit #3 OD (1 milligram Hep-II subconjunctival, eight injections), Post op #4, Pre op 32, control OS 32) was 23 and the IOP ([1]; Rabbit #3 OD (1 milligram Hep-II subconjunctival, eight injections), Post op #5, Pre op 32, control OS 32) was 22. The IOP ([1]; Rabbit #3 OD (1 milligram Hep-II subconjunctival, eight injections), Post op #6, Pre op 32, control OS 32) was 21, the IOP ([1]; Rabbit #3 OD (1 milligram Hep-II subconjunctival, eight injections), Post op #7, Pre op 32, control OS 30) was 21 and the IOP ([1]; Rabbit #3 OD (1 milligram Hep-II subconjunctival, eight injections), Post op #8, Pre op 32, control OS 31) was 24. It also gave an IOP ([1]; Rabbit #3 OD (1 milligram Hep-II subconjunctival, eight injections), Post op #9, Pre op 32, control OS 30) of 22, an IOP ([1]; Rabbit #3 OD (1 milligram Hep-II subconjunctival, eight injections), Post op #13, Pre op 32, control OS 30) of 24 and an IOP ([1]; Rabbit #3 OD (1 milligram Hep-II subconjunctival, eight injections), Post op #14, Pre op 32, control OS 28) of 18. The IOP ([1]; Rabbit #3 OD (1 milligram Hep-II subconjunctival, eight injections), Post op #15, Pre op 32, control OS 33) was 25, the IOP ([1]; Rabbit #3 OD (1 milligram Hep-II subconjunctival, eight injections), Post op #16, Pre op 32, control OS 35) was 27 and the IOP ([1]; Rabbit #3 OD (1 milligram Hep-II subconjunctival, eight injections), Post op #18, Pre op 32, control OS 34) was 26. It also gave an IOP ([1]; Rabbit #3 OD (1 milligram Hep-II subconjunctival, eight injections), Post op #20, Pre op 32, control OS 32) of 25, an IOP ([1]; Rabbit #3 OD (1 milligram Hep-II subconjunctival, eight injections), Post op #21, Pre op 32, control OS 32) of 28 and an IOP ([1]; Rabbit #3 OD (1 milligram Hep-II subconjunctival, eight injections), Post op #24, Pre op 32, control OS 32) of 26. The IOP ([1]; Rabbit #3 OD (1 milligram Hep-II subconjunctival, eight injections), Post op #27, Pre op 32, control OS 34) was 33, the IOP ([1]; Rabbit #3 OD (1 milligram Hep-II subconjunctival, eight injections), Post op #28, Pre op 32, control OS 35) was 33 and the IOP ([1]; Rabbit #4 OD (1 milligram Hep-II subconjunctival, eight injections), Post op #1, Pre op 34, control OS 25) was 24. For the same sequence, the IOP ([1]; Rabbit #4 OD (1 milligram Hep-II subconjunctival, eight injections), Post op #2, Pre op 34, control OS 25) was 30, the IOP ([1]; Rabbit #4 OD (1 milligram Hep-II subconjunctival, eight injections), Post op #3, Pre op 34, control OS 20) was 22 and the IOP ([1]; Rabbit #4 OD (1 milligram Hep-II subconjunctival, eight injections), Post op #4, Pre op 34, control OS 25) was 22. It also gave an IOP ([1]; Rabbit #4 OD (1 milligram Hep-II subconjunctival, eight injections), Post op #5, Pre op 34, control OS 30) of 24, an IOP ([1]; Rabbit #4 OD (1 milligram Hep-II subconjunctival, eight injections), Post op #6, Pre op 34, control OS 31) of 23 and an IOP ([1]; Rabbit #4 OD (1 milligram Hep-II subconjunctival, eight injections), Post op #7, Pre op 34, control OS 30) of 23. The IOP ([1]; Rabbit #4 OD (1 milligram Hep-II subconjunctival, eight injections), Post op #8, Pre op 34, control OS 32) was 25, the IOP ([1]; Rabbit #4 OD (1 milligram Hep-II subconjunctival, eight injections), Post op #9, Pre op 34, control OS 37) was 26 and the IOP ([1]; Rabbit #4 OD (1 milligram Hep-II subconjunctival, eight injections), Post op #13, Pre op 34, control OS 32) was 27. It also gave an IOP ([1]; Rabbit #4 OD (1 milligram Hep-II subconjunctival, eight injections), Post op #14, Pre op 34, control OS 27) of 20, an IOP ([1]; Rabbit #4 OD (1 milligram Hep-II subconjunctival, eight injections), Post op #15, Pre op 34, control OS 35) of 25 and an IOP ([1]; Rabbit #4 OD (1 milligram Hep-II subconjunctival, eight injections), Post op #16, Pre op 34, control OS 37) of 28. It also gave an IOP ([1]; Rabbit #4 OD (1 milligram Hep-II subconjunctival, eight injections), Post op #18, Pre op 34, control OS 35) of 27, an IOP ([1]; Rabbit #4 OD (1 milligram Hep-II subconjunctival, eight injections), Post op #20, Pre op 34, control OS 34) of 27 and an IOP ([1]; Rabbit #4 OD (1 milligram Hep-II subconjunctival, eight injections), Post op #21, Pre op 34, control OS 40) of 32. For the same sequence, the IOP ([1]; Rabbit #4 OD (1 milligram Hep-II subconjunctival, eight injections), Post op #24, Pre op 34, control OS 34) was 28, the IOP ([1]; Rabbit #4 OD (1 milligram Hep-II subconjunctival, eight injections), Post op #27, Pre op 34, control OS 36) was 33 and the IOP ([1]; Rabbit #4 OD (1 milligram Hep-II subconjunctival, eight injections), Post op #28, Pre op 34, control OS 36) was 35. The “Effect on duration of filtration surgery effect” value ([1]; rabbits in vivo) was “prolongs the effect of filtration surgery”, the “Day until which blebs remained avascular (appeared functional)” value ([1]; treated eyes, control eyes until day 10) was 18 days and the “% Contraction” value ([2]; 200 ug type IV collagen peptide, cells preincubated 1 hr, gel surface area by planimetry at day 7, no peptide 36%) was 3%. For the same sequence, the “Effect on fibroblast-mediated collagen gel contraction” value ([2]; gels cast with and without fibronectin) was “most potent inhibitory effects on contraction”.
